# According to BindingDB's records for doi:10.1021/jm00156a023 (1986):
# Legend:
# [1] = target: maltase-glucoamylase (Sus scrofa); assay: Inhibitory activity against porcine maltase
# [2] = target: sucrase-isomaltase (Sus scrofa); assay: Alpha-D-glucosidase inhibitory activity and enzyme inhibition in vitro against porcine sucrase
Structure (SMILES),IC50 [1] [nM],IC50 [2] [nM]
"OC[C@@]1(O)C[C@H](NC[C@@H](O)c2ccccc2)[C@H](O)[C@H](O)[C@H]1O [1-Hydroxymethyl-5-(2-hydroxy-2-phenyl-ethylamino)-cyclohexane-1,2,3,4-tetraol]",–,190
"OC[C@@]1(O)C[C@H](NCCc2ccccc2)[C@H](O)[C@@H](O)[C@@H]1O [1-Hydroxymethyl-5-phenethylamino-cyclohexane-1,2,3,4-tetraol]",100,2.3
"CC(C)(C)c1cc(CN[C@H]2C[C@](O)(CO)[C@@H](O)[C@H](O)[C@H]2O)cc(C(C)(C)C)c1O [5-(3,5-Di-tert-butyl-4-hydroxy-benzylamino)-1-hydroxymethyl-cyclohexane-1,2,3,4-tetraol]",43,6.8
"OC[C@@]1(O)C[C@H](NCc2ccc(Br)cc2)[C@H](O)[C@@H](O)[C@@H]1O [5-(4-Bromo-benzylamino)-1-hydroxymethyl-cyclohexane-1,2,3,4-tetraol]",230,15
"OC[C@@]1(O)C[C@H](NC2CCCCC2)[C@H](O)[C@@H](O)[C@@H]1O [5-Cyclohexylamino-1-hydroxymethyl-cyclohexane-1,2,3,4-tetraol]",410,15
"OCC1=C[C@H](NC(CO)CO)[C@H](O)[C@@H](O)[C@@H]1O [6-(2-Hydroxy-1-hydroxymethyl-ethylamino)-4-hydroxymethyl-cyclohex-4-ene-1,2,3-triol]",5900,180
N[C@H]1C[C@](O)(CO)[C@@H](O)[C@H](O)[C@H]1O [Valiolamine],2200,49

# Second part, the compound after the results:
IC50 [1] [nM],IC50 [2] [nM],Structure (SMILES)
100,230,CO[C@H]1O[C@H](CO)[C@H](N[C@H]2C[C@](O)(CO)[C@@H](O)[C@H](O)[C@H]2O)[C@H](O)[C@H]1O
72,80,CO[C@H]1O[C@H](CO)[C@@H](N[C@H]2C[C@](O)(CO)[C@@H](O)[C@H](O)[C@H]2O)[C@H](O)[C@H]1O
5.8,–,"OC[C@@]1(O)C[C@H](NC[C@H](O)c2ccccc2)[C@H](O)[C@H](O)[C@H]1O [1-Hydroxymethyl-5-(2-hydroxy-2-phenyl-ethylamino)-cyclohexane-1,2,3,4-tetraol]"
520,11,"CC(C)=CCC/C(C)=C/CN[C@H]1C[C@](O)(CO)[C@@H](O)[C@H](O)[C@H]1O [5-(3,7-Dimethyl-octa-2,6-dienylamino)-1-hydroxymethyl-cyclohexane-1,2,3,4-tetraol]"
240,9.3,"OC[C@@]1(O)C[C@H](NCC2CCCCC2)[C@H](O)[C@@H](O)[C@@H]1O [5-(Cyclohexylmethyl-amino)-1-hydroxymethyl-cyclohexane-1,2,3,4-tetraol]"
